The values below come from patent publication US20050228046A1, “Alkylamine as an antimicrobial agent in ophthalmic compositions” (ADVANCED MEDICAL OPTICS, INC., priority 2004, published 2005).

Data set [1] has as its system five FDA/ISO specified test organisms. The experiment in a line: Antimicrobial activity against the five-microbial panel, FDA/ISO disinfection criteria. In kind it is cell-based. Conditions: for stand-alone criteria: 10 ppm MA. On the procedure:
The following is the procedure by which various antimicrobial agents and solutions are tested for their ability to reduce microbial loads over short periods of time, typically 24 hours and less. The procedure is a basic microbiology challenge test, which involves the inoculation of test product aliquots with a known number of viable cells of several test organisms, and assay for the survivors at various time intervals. The results are used to calculate log drops at soak times and construct kill-curves (graphs of survivors versus time) if desired. Candida albicans, ATCC 10231, is one of five organisms specified per FDA and ISO/CLI tests for the testing of contact lens disinfectants (FDA Premarket Notification (510k) Guidance Document for Contact Lens Care Products, Appendix B, Apr. 1, 1997 and ISO/FDIS 14729: Ophthalmic optics-Contact lens care products-Microbiological requirements and test methods for products and regimens for hygienic management of contact lenses, January 2001). Contact lens disinfectants are also known as contact lens multi-purpose solutions when they are used for rinsing, cleaning, disinfection, storage and rewetting contact lenses. The five FDA/ISO specified test organisms are listed below: • Serratia marcescens, ATCC 13880 • Staphylococcus aureus, ATCC 6538 • Pseudomonas aeruginosa, ATCC 9027 • Candida albicans, ATCC 10231 • Fusarium solani, ATCC 36031 Candida albicans is often the most resistant of the five organisms to commonly used cationic antimicrobial agents in contact lens multi-purpose solutions. Thus, achievement of adequate antimicrobial activity against Candida is often the most difficult task to pass a particular disinfection efficacy standard. FDA and ISO guidelines specify two disinfection efficacy standards, indicated in the table below: Stand Alone Disinfectant (Primary) Criteria: [table] The specific test procedure for testing antimicrobial activity against the five FDA/ISO specified test organisms is as follows (C. albicans is provided as a specific example): Test samples are sterile-filtered through a 0.22 micron sterile filter into sterile plastic high density polyethylene bottles or plastic flasks. A 10-mL aliquot of test sample is aseptically transferred into a sterile polystyrene plastic test tube. Sterile saline (0.90 w/v % NaCl) with 0.05 w/v % Polysorbate 80 (SS+TWEEN) is transferred into a separate control tube. All samples and control are stored at 20-25° C. throughout the duration of the test.

A short description of data set [2]: Contact lens uptake: content left in solution after shaking with lenses. Conditions: Myristylamine with TPGS 20 fold. In kind it is physicochemical. On the procedure:
The results in Table 9A show the remaining quaternary ammonium and tertiary amine content left in solution after a 15 ml-solution-2 lenses closed system has been shaken for 6 days at room temperature. […] The control which was run for this experiment, which includes the remaining ingredients in the solutions referenced in Table 9A are listed in Table 9B. As one of ordinary skill in the art would realize, the less quaternary ammonium or tertiary amine content remaining in solution after the shaking period, the higher the absorption by the lenses.

Data set [3] can be described thus: Solubility in aqueous media. It counts as physicochemical.

As for `CCCCCCCCCCCCCCN` [Myristylamine], the stand-alone criteria result in data set [1] (Tween 80:MA ratio 7.4) is given as “fail to meet the stand-alone criteria”; in data set [1] (Tween 80:MA ratio 7.4, with addition of Polyquaternium-1), “can still be a stand-alone disinfectant product”. For the same compound, in data set [1] (TPGS:MA ratio of 40), the anti-bacteria activity entry is “lost considerably”. Besides, the “anti-fungal activity (Ca and Fs)” value in data set [1] (TPGS:MA ratio of up to 60) is given as “still seen”. Moreover, the “remaining content left in solution, Acuvue” value in data set [2] (15 ml solution, 2 Acuvue lenses, closed system shaken 6 days at room temperature) was found to be 34.1 ppm. For the same compound, the “remaining content left in solution, Purevision” value in data set [2] (15 ml solution, 2 Purevision lenses, closed system shaken 6 days at room temperature) was found to be 13.0 ppm. For the same compound, the “remaining content left in solution, Without Lens” value in data set [2] (15 ml system without lenses, shaken 6 days at room temperature) stood at 37.9 ppm. In addition, in data set [3] (acid and surfactant containing an alkyl chain coexist, solution pH below 6), the “solubility in aqueous solution with acid and surfactant” value is listed as “may be dissolved in an aqueous solution”. The solubility in acid entry in data set [3] (ambient temperature, solution pH below 2) was “insoluble in acid at ambient temperature”. In addition, in data set [3] (water or basic solution), the solubility in water result is reported as “does not dissolve in water or in a basic solution”.
